Test results: EP0745599A2, “1-(3-Heterocyclylphenyl)-s-triazine-2,4,6-oxo or thiotrione herbicidal agents” (American Cyanamid Company, priority 1995, dated 1996)

Experiments:
Format in all cases: in vivo
Settings in all cases: rated four to five weeks after treatment
[1] = tested on: ECHINOCHLOA CRUS-GALLI, (L) BEAU; assay: Postemergence herbicidal evaluation, ECHCG (Barnyardgrass)
Outline: (§1)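 Plants raised roughly two weeks in flats received a foliar spray equivalent to 0.125–0.500 kg/ha, then stayed on greenhouse benches under normal care. Rating (0–9 scale, relative to control) followed four to five weeks on, with data from multiple tests averaged.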

[2] = tested on: SETARIA VIRIDIS, (L) BEAU; assay: Postemergence herbicidal evaluation, SETVI (Foxtail, Green)
Outline: as §1

ZEA MAYS L. [3] = assay: Postemergence herbicidal evaluation, ZEAMX (Corn, Field)
Experimental: (§2) In the tests, seedling plants are grown in jiffy flats for about two weeks. The test compounds are dispersed in 50/50 acetone/water mixtures containing 0.5% TWEEN®20, a polyoxyethylene sorbitan monolaurate surfactant of Atlas Chemical Industries, in sufficient quantities to provide the equivalent of about 0.125 kg to 0.500 kg per hectare of active compound when applied to the plants through a spray nozzle operating at 40 psi for a predetermined time. After spraying, the plants are placed on greenhouse benches and are cared for in the usual manner, commensurate with conventional greenhouse practices. From four to five weeks after treatment, the seedling plants are examined and rated according to the rating system set forth below. Where more than one test is involved for a given compound, the data are averaged.
(§3) Results of herbicide evaluation are expressed on a rating scale (0-9). The scale is based upon a visual observation of plant stand, vigor, malformation, size, chlorosis and overall plant appearance as compared with a control.

[4] = tested on: ABUTILON THEOPHRASTI, MEDIC.; assay: Preemergence herbicidal evaluation, ABUTH (Velvetleaf)
Outline: (§4)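 Values are visual ratings from 0 to 9, judged against a control on stand, vigor, malformation, size, chlorosis and overall appearance. Test compound in aqueous acetone was sprayed onto freshly seeded cups at roughly 0.125 to 0.50 kg per hectare, with scoring four to five weeks later.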

[5] = tested on: AMBROSIA ARTEMISIIFOLIA, L.; assay: Preemergence herbicidal evaluation, AMBEL (Ragweed, Common)
Outline: as §4

IPOMOEA SPP. = assay: Preemergence herbicidal evaluation, IPOSS (Morningglory Spp.)
Outline: as §4

[6] = tested on: GLYCINE MAX(L)MERR. CV. WILLIAMS; assay: Preemergence herbicidal evaluation, GLXMAW (Soybean, Williams)
Outline: as §4

[7] = tested on: TRITICUM AESTIVUM, CV. APOLLO; assay: Preemergence herbicidal evaluation, TRZAWO (Wheat, Winter, CV. APOLLO)
Outline: as §4

ZEA MAYS L. [8] = assay: Preemergence herbicidal evaluation, ZEAMX (Corn, Field)
Outline: as §4

CHENOPODIUM ALBUM, L. [9] = assay: Postemergence herbicidal evaluation, CHEAL (Lambsquarters, Common)
Experimental: as §2, §3

CASSIA OBTUSIFOLIA, L. = assay: Preemergence herbicidal evaluation, CASOB (Sicklepod)
Outline: as §4

CHENOPODIUM ALBUM, L. [10] = assay: Preemergence herbicidal evaluation, CHEAL (Lambsquarters, Common)
Outline: as §4

[11] = tested on: ECHINOCHLOA CRUS-GALLI, (L) BEAU; assay: Preemergence herbicidal evaluation, ECHCG (Barnyardgrass)
Outline: as §4

[12] = tested on: SETARIA VIRIDIS, (L) BEAU; assay: Preemergence herbicidal evaluation, SETVI (Foxtail, Green)
Outline: as §4

[13] = tested on: ORYZA SATIVA, L. TEBONNET; assay: Preemergence herbicidal evaluation, ORYSAT (Rice, Tebonnet)
Outline: as §4

COC(=O)Cn1c(=O)n(C)c(=O)n(-c2cc(N3C(=O)C4=C(CCCC4)C3=O)c(F)cc2F)c1=O [Compound 10, Methyl 3-[5-(1-cyclohexene-1,2-dicarbox-imido)-2,4-difluorophenyl]-5-methyl-2,4,6-trioxo-s-triazine-1(2H)-acetate]
Herbicide rating (0-9) ECHCG ([1]; 0.125 kg/ha): 0.0 | Herbicide rating (0-9) ECHCG ([1]; 0.250 kg/ha): 0.0 | Herbicide rating (0-9) ECHCG ([1]; 0.500 kg/ha): 0.0 | Herbicide rating (0-9) SETVI ([2]; 0.125 kg/ha): 0.0 | Herbicide rating (0-9) SETVI ([2]; 0.250 kg/ha): 0.0 | Herbicide rating (0-9) SETVI ([2]; 0.500 kg/ha): 0.0 | Herbicide rating (0-9) ZEAMX (ZEA MAYS L. [3]; 0.125 kg/ha): 4.0 | Herbicide rating (0-9) ZEAMX (ZEA MAYS L. [3]; 0.250 kg/ha): 4.0 | Herbicide rating (0-9) ZEAMX (ZEA MAYS L. [3]; 0.500 kg/ha): 4.0 | Herbicide rating (0-9) ABUTH ([4]; 0.250 kg/ha): 0.0 | Herbicide rating (0-9) ABUTH ([4]; 0.500 kg/ha): 0.0 | Herbicide rating (0-9) AMBEL ([5]; 0.125 kg/ha): 0.0 | Herbicide rating (0-9) AMBEL ([5]; 0.250 kg/ha): 0.0 | Herbicide rating (0-9) AMBEL ([5]; 0.500 kg/ha): 0.0 | Herbicide rating (0-9) IPOSS (IPOMOEA SPP.; 0.125 kg/ha): 0.0 | Herbicide rating (0-9) IPOSS (IPOMOEA SPP.; 0.250 kg/ha): 0.0 | Herbicide rating (0-9) IPOSS (IPOMOEA SPP.; 0.500 kg/ha): 0.0 | Herbicide rating (0-9) GLXMAW ([6]; 0.125 kg/ha): 0.0 | Herbicide rating (0-9) GLXMAW ([6]; 0.250 kg/ha): 0.0 | Herbicide rating (0-9) GLXMAW ([6]; 0.500 kg/ha): 0.0 | Herbicide rating (0-9) TRZAWO ([7]; 0.125 kg/ha): 0.0 | Herbicide rating (0-9) TRZAWO ([7]; 0.250 kg/ha): 0.0 | Herbicide rating (0-9) TRZAWO ([7]; 0.500 kg/ha): 0.0 | Herbicide rating (0-9) ZEAMX (ZEA MAYS L. [8]; 0.125 kg/ha): 0.0 | Herbicide rating (0-9) ZEAMX (ZEA MAYS L. [8]; 0.250 kg/ha): 0.0 | Herbicide rating (0-9) ZEAMX (ZEA MAYS L. [8]; 0.500 kg/ha): 0.0

CC(C)OC(=O)Cn1c(=O)n(C)c(=O)n(-c2cc(N3C(=O)c4cccc(F)c4C3=O)c(F)cc2Cl)c1=O [Compound 11, Isopropyl 3-[2-chloro-4-fluoro-5-(3-fluoro-phthalimido)phenyl]tetrahydro-5-methyl-2,4,6-trioxo-s-triazine-1(2H)-acetate]
Herbicide rating (0-9) CHEAL (CHENOPODIUM ALBUM, L. [9]; 0.125 kg/ha): 9.0 | Herbicide rating (0-9) CHEAL (CHENOPODIUM ALBUM, L. [9]; 0.250 kg/ha): 9.0 | Herbicide rating (0-9) CHEAL (CHENOPODIUM ALBUM, L. [9]; 0.500 kg/ha): 9.0 | Herbicide rating (0-9) ECHCG ([1]; 0.125 kg/ha): 3.0 | Herbicide rating (0-9) ECHCG ([1]; 0.250 kg/ha): 3.0 | Herbicide rating (0-9) ECHCG ([1]; 0.500 kg/ha): 3.0 | Herbicide rating (0-9) AMBEL ([5]; 0.125 kg/ha): 0.0 | Herbicide rating (0-9) AMBEL ([5]; 0.250 kg/ha): 0.0 | Herbicide rating (0-9) AMBEL ([5]; 0.500 kg/ha): 0.0 | Herbicide rating (0-9) CASOB (CASSIA OBTUSIFOLIA, L.; 0.125 kg/ha): 0.0 | Herbicide rating (0-9) CASOB (CASSIA OBTUSIFOLIA, L.; 0.250 kg/ha): 0.0 | Herbicide rating (0-9) CASOB (CASSIA OBTUSIFOLIA, L.; 0.500 kg/ha): 0.0 | Herbicide rating (0-9) CHEAL (CHENOPODIUM ALBUM, L. [10]; 0.125 kg/ha): 9.0 | Herbicide rating (0-9) CHEAL (CHENOPODIUM ALBUM, L. [10]; 0.250 kg/ha): 9.0 | Herbicide rating (0-9) CHEAL (CHENOPODIUM ALBUM, L. [10]; 0.500 kg/ha): 9.0 | Herbicide rating (0-9) IPOSS (IPOMOEA SPP.; 0.125 kg/ha): 0.0 | Herbicide rating (0-9) IPOSS (IPOMOEA SPP.; 0.250 kg/ha): 0.0 | Herbicide rating (0-9) IPOSS (IPOMOEA SPP.; 0.500 kg/ha): 0.0 | Herbicide rating (0-9) ECHCG ([11]; 0.125 kg/ha): 0.0 | Herbicide rating (0-9) ECHCG ([11]; 0.250 kg/ha): 0.0 | Herbicide rating (0-9) ECHCG ([11]; 0.500 kg/ha): 0.0 | Herbicide rating (0-9) SETVI ([12]; 0.125 kg/ha): 0.0 | Herbicide rating (0-9) SETVI ([12]; 0.250 kg/ha): 0.0 | Herbicide rating (0-9) SETVI ([12]; 0.500 kg/ha): 0.0 | Herbicide rating (0-9) GLXMAW ([6]; 0.125 kg/ha): 0.0 | Herbicide rating (0-9) GLXMAW ([6]; 0.250 kg/ha): 0.0 | Herbicide rating (0-9) GLXMAW ([6]; 0.500 kg/ha): 0.0 | Herbicide rating (0-9) ORYSAT ([13]; 0.125 kg/ha): 0.0 | Herbicide rating (0-9) ORYSAT ([13]; 0.250 kg/ha): 0.0 | Herbicide rating (0-9) ORYSAT ([13]; 0.500 kg/ha): 0.0 | Herbicide rating (0-9) TRZAWO ([7]; 0.125 kg/ha): 0.0 | Herbicide rating (0-9) TRZAWO ([7]; 0.250 kg/ha): 0.0 | Herbicide rating (0-9) TRZAWO ([7]; 0.500 kg/ha): 0.0 | Herbicide rating (0-9) ZEAMX (ZEA MAYS L. [8]; 0.125 kg/ha): 0.0 | Herbicide rating (0-9) ZEAMX (ZEA MAYS L. [8]; 0.250 kg/ha): 0.0 | Herbicide rating (0-9) ZEAMX (ZEA MAYS L. [8]; 0.500 kg/ha): 0.0
